Type in all cases: cell-based
Assay [1] has as its target T1, human muscarinic M1 receptor (Homo sapiens, UniProt P11229).
T1 sequence (P11229 1-460): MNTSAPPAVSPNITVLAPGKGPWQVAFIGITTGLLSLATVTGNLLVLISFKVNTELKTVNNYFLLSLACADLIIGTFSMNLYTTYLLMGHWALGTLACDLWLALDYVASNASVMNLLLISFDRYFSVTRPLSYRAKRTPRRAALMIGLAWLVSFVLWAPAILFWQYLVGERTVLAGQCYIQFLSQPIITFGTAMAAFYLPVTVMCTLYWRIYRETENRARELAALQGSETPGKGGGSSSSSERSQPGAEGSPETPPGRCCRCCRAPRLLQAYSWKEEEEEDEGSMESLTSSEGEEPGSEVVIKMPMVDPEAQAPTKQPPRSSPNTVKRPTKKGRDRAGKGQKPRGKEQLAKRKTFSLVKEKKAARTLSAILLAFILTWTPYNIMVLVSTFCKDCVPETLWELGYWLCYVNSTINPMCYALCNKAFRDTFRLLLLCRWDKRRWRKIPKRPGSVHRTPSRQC
The assay can be described thus: Alphascreen Surefire phospho-ERK1/2 functional assay, M1. Particulars: for % Emax cf. ACh, M1: CHO cells stably expressing human M1; for % Emax cf. ACh, M1 / Emax: Emax relative to ACh; for EC50: pEC50 M1, CHO cells stably expressing human M1, phospho-ERK1/2; for Emax: CHO, read-out: % Emax cf. ACh, M1, CHO cells stably expressing human M1. The method, boiled down:
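Stably transfected CHO cells, serum-starved overnight, then exposed to agonist for 5 min at 37 °C. Cells lysed and phospho-ERK1/2 measured by AlphaScreen SureFire.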
Background: Alpha assays give light when donor and acceptor beads are brought close together.

For assay [2], the target named is T2, human muscarinic M2 receptor (Homo sapiens, UniProt P08172).
T2 sequence (P08172 1-466): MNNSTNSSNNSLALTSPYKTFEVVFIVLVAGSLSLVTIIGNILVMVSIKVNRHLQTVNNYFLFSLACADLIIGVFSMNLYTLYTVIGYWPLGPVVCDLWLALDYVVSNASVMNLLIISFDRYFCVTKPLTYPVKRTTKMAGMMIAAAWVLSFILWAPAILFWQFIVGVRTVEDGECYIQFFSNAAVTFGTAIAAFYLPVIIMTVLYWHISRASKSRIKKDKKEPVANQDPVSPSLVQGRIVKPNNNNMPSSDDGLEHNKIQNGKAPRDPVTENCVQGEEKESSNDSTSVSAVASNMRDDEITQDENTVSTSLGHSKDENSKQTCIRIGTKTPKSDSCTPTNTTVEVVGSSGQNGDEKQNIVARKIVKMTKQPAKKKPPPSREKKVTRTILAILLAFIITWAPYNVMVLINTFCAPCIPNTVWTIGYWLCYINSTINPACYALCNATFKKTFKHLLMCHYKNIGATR
Kind of assay: Alphascreen Surefire phospho-ERK1/2 functional assay, M2. The note with it: for % Emax cf. ACh, M2: CHO cells stably expressing human M2, Emax relative to ACh; for EC50: pEC50 M2, CHO cells stably expressing human M2, phospho-ERK1/2. In short, it runs like this: (§1)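 CHO cells stably expressing human M1, M2, M3 or M4 receptor, serum-starved overnight, then stimulated with agonist for 5 min at 37 °C. Cells lysed for 15 min and phospho-ERK1/2 detected in the lysate by AlphaScreen SureFire.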

The target of assay [3] is T3, human muscarinic M3 receptor (Homo sapiens, UniProt P20309).
T3 construct: expressed in transfected cells
T3 sequence (P20309 whole entry): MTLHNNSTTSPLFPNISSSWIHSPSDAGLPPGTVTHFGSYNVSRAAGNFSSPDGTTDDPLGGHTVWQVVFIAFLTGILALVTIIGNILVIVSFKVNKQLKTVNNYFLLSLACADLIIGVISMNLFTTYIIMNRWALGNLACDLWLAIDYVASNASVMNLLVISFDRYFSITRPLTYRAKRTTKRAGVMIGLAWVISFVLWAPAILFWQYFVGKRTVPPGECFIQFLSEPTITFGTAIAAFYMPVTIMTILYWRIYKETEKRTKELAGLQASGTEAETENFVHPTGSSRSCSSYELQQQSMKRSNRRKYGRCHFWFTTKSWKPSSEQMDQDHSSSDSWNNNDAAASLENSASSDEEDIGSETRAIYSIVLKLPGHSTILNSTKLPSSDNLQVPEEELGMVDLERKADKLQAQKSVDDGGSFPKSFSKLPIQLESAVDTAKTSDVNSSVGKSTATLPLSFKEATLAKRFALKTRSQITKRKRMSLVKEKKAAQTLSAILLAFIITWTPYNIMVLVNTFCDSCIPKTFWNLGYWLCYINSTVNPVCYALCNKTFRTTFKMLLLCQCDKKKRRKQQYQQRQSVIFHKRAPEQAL
Kind of assay: Alphascreen Surefire phospho-ERK1/2 functional assay, M3. The note with it: for Emax: CHO, read-out: % Emax cf. ACh, M3, CHO cells stably expressing human M3; for Emax / % Emax cf. ACh, M3: Emax relative to ACh; for EC50: pEC50 M3, CHO cells stably expressing human M3, phospho-ERK1/2; for % Emax cf. ACh, M3: CHO cells stably expressing human M3. In short, it runs like this: as §1

Assay [4] concerns the target T4, human muscarinic M4 receptor (Homo sapiens, UniProt P08173).
T4 sequence (P08173 1-479): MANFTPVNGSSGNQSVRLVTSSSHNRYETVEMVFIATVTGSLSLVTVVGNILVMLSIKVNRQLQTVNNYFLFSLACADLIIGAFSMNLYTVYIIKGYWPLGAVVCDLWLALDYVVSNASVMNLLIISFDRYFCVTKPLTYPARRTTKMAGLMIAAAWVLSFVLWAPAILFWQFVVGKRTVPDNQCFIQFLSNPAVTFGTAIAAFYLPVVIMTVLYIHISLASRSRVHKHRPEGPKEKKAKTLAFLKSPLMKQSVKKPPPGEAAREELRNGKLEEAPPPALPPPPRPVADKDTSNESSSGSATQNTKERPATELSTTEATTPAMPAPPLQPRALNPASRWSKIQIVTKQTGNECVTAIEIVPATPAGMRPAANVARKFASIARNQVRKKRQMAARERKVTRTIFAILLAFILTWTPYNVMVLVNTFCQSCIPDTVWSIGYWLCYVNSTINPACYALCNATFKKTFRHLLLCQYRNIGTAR
Kind of assay: Alphascreen Surefire phospho-ERK1/2 functional assay, M4. The note with it: for EC50: pEC50 M4, CHO cells stably expressing human M4, phospho-ERK1/2; for % Emax cf. ACh, M4: CHO cells stably expressing human M4. In short, it runs like this: as §1

Molecules are shown by their SMILES. Bounds are passed on as bounds.

As usually defined, the EC50 is the concentration needed to bring the measured effect to its halfway point. Higher therefore signals a less potent agent. Usually Emax stands for the maximal effect, on the per cent scale that the assay sets. `CCOC(=O)N1C2COCC1CC(N1CCC3(CC1)C(=O)Nc1ccccc13)C2` (single isomer, unassigned) [Example 5-5 Isomer 1, Ethyl 7-(2-oxo-1,2-dihydro-1′H-spiro[indole-3,4′-piperidin]-1′-yl)-3-oxa-9-azabicyclo[3.3.1]nonane-9-carboxylate]: in assay [1] (listed as 5-5 Isomer 1), the “% Emax cf. ACh, M1” value came to 75%. Also, the concentration for a half-maximal effect (EC50) is 288 nM in assay [1], 123 nM in assay [2], over 20000 nM in assay [3] and 21.4 nM in assay [4]. Besides, the “% Emax cf. ACh, M2” value in assay [2] (listed as 5-5 Isomer 1) is 24%. For the same molecule, the Emax was determined as 4% in assay [3] and 99% in assay [4] (CHO, read-out: % Emax cf. ACh, M4, CHO cells stably expressing human M4, Emax relative to ACh).
Consider `CCOC(=O)N1C2COCC1CC(N1CCC(N(CC(C)C)C(C)=O)CC1)C2` (single isomer, unassigned) [Example 6-1 Isomer 1, Ethyl 7-{4-[acetyl(2-methylpropyl)amino]piperidin-1-yl}-3-oxa-9-azabicyclo[3.3.1]nonane-9-carboxylate], for which the Emax in assay [1] worked out at 93%. Besides, the EC50 was 178 nM in assay [1], over 20000 nM in assay [2], over 20000 nM in assay [3] and 151 nM in assay [4]. In assay [2] (listed as 6-1 Isomer 1), the “% Emax cf. ACh, M2” value was 26%. Further, the “% Emax cf. ACh, M3” value in assay [3] (listed as 6-1 Isomer 1) was 7%. In addition, the “% Emax cf. ACh, M4” value in assay [4] (Emax relative to ACh, listed as 6-1 Isomer 1) is recorded as 77%.
Take `CCOC(=O)N1C2COCC1CC(N1CCC(N(CC(C)C)C(C)=O)CC1)C2` (single isomer, unassigned) [Example 6-1 Isomer 2, Ethyl 7-{4-[acetyl(2-methylpropyl)amino]piperidin-1-yl}-3-oxa-9-azabicyclo[3.3.1]nonane-9-carboxylate]: the “% Emax cf. ACh, M1” value in assay [1] stood at 102%. For the same molecule, the EC50 was 61.7 nM in assay [1], 324 nM in assay [2] and 17.4 nM in assay [4]. For the same molecule, the “% Emax cf. ACh, M2” value in assay [2] (listed as 6-1 Isomer 2) came out at 90%. In addition, in assay [3] (listed as 6-1 Isomer 2), the “% Emax cf. ACh, M3” value was found to be 62%. For the same molecule, in assay [4] (Emax relative to ACh, listed as 6-1 Isomer 2), the “% Emax cf. ACh, M4” value was determined as 111%.
For the molecule `CCOC(=O)N1C2COCC1CC(N1CCC(N(CC3(C)CC3)C(C)=O)CC1)C2` (single isomer, unassigned) [Example 6-3 Isomer 1, Ethyl 7-(4-{acetyl[(1-methylcyclopropyl)methyl]amino}piperidin-1-yl)-3-oxa-9-azabicyclo[3.3.1]nonane-9-carboxylate], the “% Emax cf. ACh, M1” value in assay [1] (listed as 6-3 Isomer 1) is recorded as 124%. Also, the EC50 in assay [1] was 120 nM; in assay [2] it was 355 nM; in assay [3], over 20000 nM; in assay [4], 60.3 nM. The “% Emax cf. ACh, M2” value in assay [2] (listed as 6-3 Isomer 1) is 36%. Moreover, the “% Emax cf. ACh, M3” value in assay [3] (listed as 6-3 Isomer 1) stood at 390%. Further, the “% Emax cf. ACh, M4” value in assay [4] (Emax relative to ACh, listed as 6-3 Isomer 1) turned out to be 93%.
As to `CCOC(=O)N1C2COCC1CC(N1CCC(N(CC3(C)CC3)C(C)=O)CC1)C2` (single isomer, unassigned) [Example 6-3 Isomer 2], in assay [1] (listed as 6-3 Isomer 2), the “% Emax cf. ACh, M1” value is listed as 90%. For the same molecule, the EC50 in assay [1] is 195 nM; in assay [2] it was over 20000 nM; in assay [4], 389 nM. The “% Emax cf. ACh, M2” value in assay [2] (listed as 6-3 Isomer 2) is given as 11%. The “% Emax cf. ACh, M3” value in assay [3] (listed as 6-3 Isomer 2) is on record as 9%. Moreover, the “% Emax cf. ACh, M4” value in assay [4] (Emax relative to ACh, listed as 6-3 Isomer 2) came to 44%.
Take `CCOC(=O)N1C2COCC1CC(N1CCC(N(CC3(C)CCC3)C(C)=O)CC1)C2` (single isomer, unassigned) [Example 6-4 Isomer 2, Ethyl 7-(4-{acetyl[(1-methylcyclobutyl)methyl]amino}piperidin-1-yl)-3-oxa-9-azabicyclo[3.3.1]nonane-9-carboxylate]: the “% Emax cf. ACh, M1” value in assay [1] (listed as 6-4 Isomer 2) was 72%. In addition, the EC50 in assay [1] is 33.9 nM; in assay [2], over 20000 nM; in assay [3], over 20000 nM; in assay [4], 204 nM. Besides, in assay [2] (listed as 6-4 Isomer 2), the “% Emax cf. ACh, M2” value is listed as 15%. Besides, the Emax in assay [3] was determined as 19%. The “% Emax cf. ACh, M4” value in assay [4] (Emax relative to ACh, listed as 6-4 Isomer 2) is recorded as 38%.
With `CCOC(=O)N1C2COCC1CC(N1CCC(N(Cc3ccccc3)C(C)=O)CC1)C2` (single isomer, unassigned) [Example 6-5 Isomer 1, Ethyl 7-{4-[acetyl(benzyl)amino]piperidin-1-yl}-3-oxa-9-azabicyclo[3.3.1]nonane-9-carboxylate], in assay [1], the maximal response (Emax) worked out at 92%. In addition, the half-maximal effective concentration (EC50) was 166 nM in assay [1], over 20000 nM in assay [2], over 20000 nM in assay [3] and 302 nM in assay [4]. For the same molecule, the “% Emax cf. ACh, M2” value in assay [2] (listed as 6-5 Isomer 1) came to 11%. The “% Emax cf. ACh, M3” value in assay [3] (listed as 6-5 Isomer 1) was found to be 13%. Also, the “% Emax cf. ACh, M4” value in assay [4] (Emax relative to ACh, listed as 6-5 Isomer 1) came to 50%.
Regarding `CCOC(=O)N1C2COCC1CC(N1CCC(N(Cc3ccccc3)C(C)=O)CC1)C2` (single isomer, unassigned) [Example 6-5 Isomer 2, Ethyl 7-{4-[acetyl(benzyl)amino]piperidin-1-yl}-3-oxa-9-azabicyclo[3.3.1]nonane-9-carboxylate], in assay [1], the “% Emax cf. ACh, M1” value was 91%. Further, the EC50 is 15.8 nM in assay [1], 2340 nM in assay [2], 2820 nM in assay [3] and 145 nM in assay [4]. Moreover, in assay [2] (listed as 6-5 Isomer 2), the “% Emax cf. ACh, M2” value is recorded as 68%. Further, the “% Emax cf. ACh, M3” value in assay [3] (listed as 6-5 Isomer 2) stood at 83%. Besides, the “% Emax cf. ACh, M4” value in assay [4] (Emax relative to ACh, listed as 6-5 Isomer 2) worked out at 73%.

The values above are taken from patent publication US10787447B2, “Pharmaceutical compounds” (Heptares Therapeutics Limited, priority 2018, dated 2020).
